Assay [1] addresses human αvβ3 receptor (Homo sapiens, UniProt P05106+P06756). The assay is described as follows: Displacement of the binding Vitronectin/Vitronectin receptor (αvβ3), competition test. Conditions: human vitronectin coated plates, 3 hours at ambient temperature, read-out: Competition test Vn/VR (αvβ3) binding IC50 en. How it is done:
1—Study of the Products of the Invention on the Displacement of the Binding: Vitronectin/Vitronectin Receptor (αvβ3) […]
MaxiSorp 96-well plates are coated overnight at 4° C., with 100 μl of human Vitronectin (cf Yatohgo et al. Cell., Structure and fraction 13: 281-292 (1988)) at 2 μg/ml, (Dilution in coating buffer).
The next day, the wells are emptied and the ligands (Vitronectin) are then fixed (see fixing buffer) for one hour at ambient temperature under gentle agitation.
The wells are washed six times (see washing buffer), then the following are added to each well and in this order:
40 μl of incubation buffer, 10 μl of the dilution of the product to be tested, (the products are diluted in a 50/50 mixture of DMSO-H2O) 50 μl of human αvβ3 receptor (cf Pytela et al. Methods Enzymol (1987) 144:475) (dilution in incubation buffer, to be adapted according to the receptor batch and according to the ligand).
The ligand, the human αvβ3 receptor and the products to be studied are incubated for 3 hours at ambient temperature under gentle agitation.
The wells are again washed six times, then incubated for 2 hours at ambient temperature under gentle agitation, in the presence of 100 μl of anti-receptor, 4B12-HRP antibody coupled to a peroxidase (the 4B12-HRP antibody is diluted in an incubation buffer. The dilution is to be adapted according to the receptor batch).
This kit contains a bottle A of substrate (3,3′,5,5′-tetramethylbenzidine at 0.4 g/l) and a bottle B (H2O2 at 0.02% in a citrate/citric acid buffer). Extemporaneously, a volume of A is mixed with a volume of B, then the reaction mixture is distributed at a rate of 100 μl/well. The enzymatic reaction develops over […] for Vitronectin/αvβ3, then its development is stopped by the addition of 100 μl of 1M phosphoric acid. The optical density is measured at 450 nm. […]
coating buffer: Carbonate 0.05 M, NaOH pH 9.6 fixing buffer: PBS containing 0.5% BSA (pH 7.4) washing buffer: PBS containing 0.05% Tween 20 (pH 7.4)
Expression of the Results:
The following curve is traced: the percentage of binding of the human vitronectin as a function of the logarithm of the concentration of each product tested.
For each product the IC50 is determined according to the following formula:
BO=Maximum binding in the absence of any product
Bmin=Minimum binding in the presence of the highest concentration of product.

Assay [2] deals with bone resorption (skullcaps of new-born mice). Put plainly: Test of mouse calvarium: bone resorption by release of 45Ca from skullcaps of new-born mice, ex-vivo. The settings on record: Mus musculus, inhibition of bone resorption (45Ca release) in half-calvaria, 48 hours contact, read-out: Mouse cavarium % inhibition at 10 μM. From the text:
2—Test of Mouse Calvarium
Injection of a tracer dose of ^45Ca (CaCl2) to gestating female mice in order to study bone resorption by measuring the release of ^45Ca from the skullcaps of new-born mice.
Determination of the activity of a molecule on bone resorption, ex-vivo study.
Vehicle: DMSO, H2O/BSA (0.1%)
Dose: Variable ([…] in screening).
Echistatin (ref. H-9010-BACHEM)
^45Ca in the form of an aqueous solution of CaCl2—ref. CES3 AMERSHAM or NEZ-013 NEN.
Vehicle: Physiological serum
Dose: 25 μCi/mouse/0.4 ml
CMRL 1066 with phenol red (ref. 041-01535 M/GIBCO) supplemented by 0.1% BSA and penicillin/streptomycin.
1) Injection of ^45Ca to Gestating Mice (OF1, Strain: Swiss)
a) Preparation of the Labelled Solution:
190 μl of the mother solution of calcium at 2 mci/ml is added to 6 ml of physiological serum.
On the 17th day of gestation the mice receive 400 μl of this solution by intravenous route, that is 25 μCi/mouse.
2) Removal of the Tissue (Skullcap (Calvarium))
Six days after their birth the new-born mice are decapitated, then the head is recovered, and the skin is incised from the nape to the front. The skullcap is removed by cutting it out with scissors, and using a punch two exactly identical half-calvaria (one on the left and one on the right) are cut from the parietal bones. One will serve as the control, the other will be used to test the product to be studied.
Each half calvarium is placed in a well of a 24-well plate, containing 1 ml of medium, on a 100 μm polyethylene and nylex support, in order to avoid all contact with the bottom of the well.
After 24 hours, the polyethylene supports carrying the calvaria are transferred into new 24-well plates containing 1 ml of fresh medium and the products to be tested or their solvents. 200 μl of medium from the first plates is removed from each well and a first count of the radioactivity is carried out (value A).
This change of medium allows all the mechanical stress associated with the removal to be eliminated.
48 hours after putting the tissues in contact with the studied products, 200 μl of medium is removed from each well and counted (value B), so as to determine the quantity of ^45Ca released from the medium during the so-called resorption phase.
The calvarium is then completely demineralized in 1 ml of 5% trichloracetic acid and after digestion, 200 μl is also removed and counted so as to determine the quantity of calcium remaining in the bone (value C). Expression of the results
A % of bone resorption is calculated for each half-calvarium (each well) in the following manner:
% bone resorption=dpm B/dpm (A+B+C)×100
The sum of dpm A+B+C represents the quantity of ^45Ca incorporated in each bone part on the day of removal.
In order to measure the effect of a product, the ratio of the percentage of bone resorption of the treated well and of the corresponding control well is calculated for each point. The value found called the resorption index is comprised between 0 and 1 if the product inhibits bone resorption and is >1 if the product potentializes it. The average of the 6 indices (since there are 6 points/group) of each product is then calculated which gives one index/product. If this index is subtracted from the value 1, the inhibitory power of the product is obtained, which can be expressed as a percentage.
Furthermore a statistical test (Student T-test) is carried out by comparing point/point the individual resorption indices.

SMILES strings stand for the structures.

Broadly, the inhibition is how much of the control response was suppressed. As for `COc1c(OCCCC(=O)O)cc2c(c1OC)C1=C(CCC1)C(=NNC1=NCCCN1)CC2` [EX. 12, 4-((9,10-Dimethoxy-4-((1,4,5,6-tetrahydro-2-pyrimidinyl)hydrazono)-1,2,3,4,5,6-hexahydro-8-benz(e)-azulenyl)oxy)-butanoic Acid], in assay [1], the IC50 is 350 nM. Also, in assay [2], the inhibition at 10 µM was found to be 12%.
On the same counts, the results for `COc1c(OCCC(=O)O)cc2c(c1OC)C1=C(CCC1)C(=NNC1=NCCN1)CC2` [EX. 14, 3-(4((4,5-Dihydro-1H-imidazolin-2-yl)hydrazono)-9,10-dimethoxy-1,2,3,4,5,6-hexahydro-8-benz(e)azulenyl)oxy)-propanoic Acid] are 750 nM and 14%.
Consider `O=C(O)CCCOc1ccc2c(c1)C1=C(CCC1)C(=NNC1=NCCN1)CC2` [EX. 20, 4-((4((4,5-Dihydro-1H-imidazol-2-yl)hydrazono)-1,2,3,4,5,6-hexahydro-9-benz(e)azulenyl)oxy)-butanoic Acid], for which the IC50 in assay [1] worked out at 79 nM. The inhibition at 10 µM in assay [2] worked out at 11%.
